Test results taken from patent publication US20260199327A1, “PHARMACEUTICAL COMBINATION AND PHARMACEUTICAL COMPOSITION FOR TREATING CANCER” (CSPC ZHONGQI PHARMACEUTICAL TECHNOLOGY (SHIJIAZHUANG) CO., …, priority 2022, published 2026).
Counter-ions that a name gives are not always drawn. Like-named read-outs stand apart in the source and are kept apart here. Marks after values point to notes of the source that are not given here.

Experiments:
[1] = biological target: FGFR4 (Homo sapiens, UniProt P22455); experiment: FGFR4 kinase activity inhibition experiment (Caliper mobility shift assay); type: biochemical
Chain of FGFR4 (P22455 22-802): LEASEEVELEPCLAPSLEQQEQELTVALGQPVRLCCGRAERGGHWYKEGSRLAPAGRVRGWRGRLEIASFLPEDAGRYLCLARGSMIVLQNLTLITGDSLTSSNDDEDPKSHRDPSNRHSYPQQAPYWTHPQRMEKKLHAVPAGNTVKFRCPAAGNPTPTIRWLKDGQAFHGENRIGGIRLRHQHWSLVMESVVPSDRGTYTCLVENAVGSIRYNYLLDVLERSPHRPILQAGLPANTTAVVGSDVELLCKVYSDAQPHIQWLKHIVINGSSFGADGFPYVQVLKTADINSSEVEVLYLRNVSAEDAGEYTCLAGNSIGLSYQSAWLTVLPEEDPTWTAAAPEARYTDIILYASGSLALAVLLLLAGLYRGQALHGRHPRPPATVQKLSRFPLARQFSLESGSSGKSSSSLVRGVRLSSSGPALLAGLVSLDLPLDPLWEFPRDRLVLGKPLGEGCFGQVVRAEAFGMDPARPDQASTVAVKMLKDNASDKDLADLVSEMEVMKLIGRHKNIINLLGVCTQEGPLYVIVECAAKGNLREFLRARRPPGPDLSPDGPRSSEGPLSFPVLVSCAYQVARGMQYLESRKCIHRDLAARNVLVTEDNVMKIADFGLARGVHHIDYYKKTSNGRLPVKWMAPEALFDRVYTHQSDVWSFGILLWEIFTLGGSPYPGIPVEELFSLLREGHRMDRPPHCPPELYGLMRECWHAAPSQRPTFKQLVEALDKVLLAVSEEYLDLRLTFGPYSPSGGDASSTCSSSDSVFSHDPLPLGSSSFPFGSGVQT
Protocol: FGFR4 protein kinase activity was determined using Caliper mobility shift assay. The compound was dissolved in DMSO and then diluted with kinase buffer, 5 μL of 5-fold final reaction concentration of compound (10% DMSO) was added to a 384-well plate. […] After incubation at 28° C. for 30-60 minutes, 25 μL of stop solution was added to stop the reaction. Conversion data was read on Caliper EZ Reader II (Caliper Life Sciences). The conversion rate was converted to inhibition rate (% inhibition=(max−sample conversion rate)/(max−min)*100), wherein max refers to the conversion rate of the DMSO control, and min refers to the conversion rate of enzyme-free control. Curve was plotted with compound concentration and inhibition rate on the horizontal and vertical coordinates respectively, and the curve was fitted and IC50 was calculated using XLFit excel add-in version 4.3.1 software.

[2] = tested on: Huh-7 cells; experiment: Huh-7 tumor cell proliferation inhibition assay (CellTiter Glo); type: cell-based; details: Homo sapiens, 72 or 168 hours
Protocol: Huh-7 cell suspension was adjusted to 5×10^4/ml or 2×10^4/ml with DMEM+2 mM Glutamine+10% FBS medium. 100 μL of cell suspension was added per well to a 96-well cell culture plate, to give a final cell concentration of 5000 cells/well (72 hours) or 2000 cells/well (168 hours). The compound to be tested (compound of formula (B)) was dissolved in DMSO to give 10 mmol of stock solution. 200× final concentration of compound was prepared with stock solution and DMSO, and 3× serial gradient dilutions were prepared, then diluted 20-fold each with medium. Finally, 10 μL of the corresponding 10-fold solution was added per well for each cell, wherein each drug concentration was added in one well. […] After 72 or 168 hours of drug treatment, according to CTG instructions (CellTiter Glo), 100 μL of CTG solution that had been previously thawed and equilibrated to room temperature was added per well, mixed for 2 minutes using a microplate shaker, placed at room temperature for 10 minutes, and then chemiluminescent signal value was measured with EnSpire plate reader. Cell survival was calculated using formula: (Vsample−Vblank)/(Vvehicle control−Vblank)×100%, wherein Vsample is the reading of the drug treatment group, Vvehicle control is the average of the solvent control group, and Vblank is the average of the blank control wells. […]

[3] = tested on: Hep3B (human hepatocarcinoma cell line) xenograft; details: for growth of tumor (tumor weight) versus vehicle, in words / growth of xenograft tumor (tumor volume) versus vehicle, in words: at the test dose; for TV (mm^3) d14: d14, Mean ± SD; for TV (mm^3) d14 / Tumor Weight: n = 7; for TV (mm^3) d14 / T/C d14 (%) (relative tumor volume proliferation rate) / TGI d14 (%) (tumor growth inhibition rate) / Tumor Weight / Tumor Weight Inhibition Rate (%): palbociclib 50 mg/kg qd; for Tumor Weight / Tumor Weight Inhibition Rate (%): end of test; for Tumor Weight: Mean ± SD
From the text: 42 NU/NU mouse, female, 42-48 days old, weighing 22-26 g.
Hep3B cells were resuscitated and passaged in vitro to the desired number of cells. The cells were counted under a microscope, and diluted with serum-free medium and matrix gel (1:1) to adjust the number of tumor cells to approximately 5×10^7 cells/mL. The cell suspension was placed in an ice bath.
Hep3B cell suspension was withdrawn with a sterile syringe for inoculation into subcutaneous tissue in the axilla of the forelimb of NU/NU mice, with a volume of 0.1 mL/per mice, containing approximately 5.0×10^6 tumor cells, to prepare NU/NU mice Hep3B xenogratf model.
In the vehicle group, the solvents were administered at the same frequency and volume for 14 consecutive days.
4.3 Observation Criteria and Evaluation Criteria • (1) General state observation: all animals were observed once a day during the test period and the abnormalities in various parts of the body and the behavior change situations were recorded. • (2) Body weight: all animals were weighed once before testing and the appropriate body weight of animals were selected for testing. Animals were weighed once a day at a fixed time after initiation of administration for weight monitoring, and body weight statistics were consistent with tumor volume statistics. • (3) Death and moribund: time of death was recorded for dead animals, moribund animals were observed more frequently, and time of death was determined. • (4) Tumor Evaluation
After animal grouping, tumor length and short diameters were measured twice per week. • (1) Tumor volume: V=½×a×b^2 • (2) Relative tumor volume:
[formula] • (3) Relative tumor volume proliferation rate:
[formula] • (4) Tumor growth inhibition rate:
[formula] • Note: V: Tumor volume • a: tumor length; b: tumor width; RTV: relative tumor volume; TVnd: tumor volume on day n; TV0d: tumor volume on day 0; RTVxnd: mean relative tumor volume on day n; TVXn: mean tumor volume on day n in the administrated group; TVX0: mean tumor volume on day 0 in the administrated group; TVMn: mean tumor volume on day n in the solvent (model) group; TVM0: mean tumor volume on day 0 in the solvent (model) group. • (5) Tumor weight
At the end of the test, the animals were sacrificed by cervical dislocation, and a tumor was stripped and weighed.
Data were processed using SPSS 19.0 statistical software. Repeated Measure process analyzed tumor volume changes between groups with multiple measurements over time. Multivariate process compared differences in tumor volume between groups at each measurement. Difference in tumor weight between groups was analyzed by LSD method of One-way ANOVA.

[4] = tested on: Hep3B (human hepatocarcinoma cell line) xenograft; details: for Change Rate in Weight (%) / Number of Animals (Survived/Total): BALB/c Nude mice, gavage qd 16 days, palbociclib 50 mg/kg; for Change Rate in Weight (%) / Number of Animals (Survived/Total) / TV(mm3) d16 / T/C d16 (%) (relative tumor volume proliferation rate) / TGI d16 (%) (tumor growth inhibition rate) / Tumor Weight / Tumor Weight Inhibition Rate (%): compound of formula (B) 5 mg/kg, sorafenib tosylate 8 mg/kg; for growth of xenograft tumor (tumor volume) versus vehicle, in words / tumor growth (tumor weight) versus vehicle, in words: at the test dose; for TV(mm3) d16: d16, Mean ± SD; for TV(mm3) d16 / Tumor Weight: n = 6; for TV(mm3) d16 / T/C d16 (%) (relative tumor volume proliferation rate) / TGI d16 (%) (tumor growth inhibition rate) / Tumor Weight / Tumor Weight Inhibition Rate (%): palbociclib 50 mg/kg qd; for Tumor Weight / Tumor Weight Inhibition Rate (%): end of test; for Tumor Weight: Mean ± SD
Protocol: 36 BALB/c Nude mice, female, 18-20 g in body weight.
Compounds of formula (B), sorafenib tosylate, palbociclib.
Sorafenib tosylate/palbociclib: a solution of castor oil, anhydrous ethanol and ultrapure water in a volume ratio of 1:1:6.
In the solvent group, the solvents were administered at the same frequency and volume for 16 consecutive days.
4.3 Observation Criteria and Evaluation Criteria: Same as Example 2

[5] = 638 patients, cited from earlier work
[6] = patients taking sorafenib, N=2276; cited from earlier work
[7] = NU/NU mice, gavage qd 14 days, compound of formula (B) 5 mg/kg, lenvatinib mesylate 8 mg/kg, palbociclib 50 mg/kg
[8] = compound of formula (B) 5 mg/kg, lenvatinib mesylate 8 mg/kg
[9] = listed as compound of formula (B)
[10] = most common drug-related adverse events

| Structure (SMILES) | Number of Animals (Survived/Total) [3, 7] | growth of tumor (tumor weight) versus vehicle, in words [3] | growth of xenograft tumor (tumor volume) versus vehicle, in words [3] | TV (mm^3) d14 [3, 8] | T/C d14 (%) (relative tumor volume proliferation rate) [3, 8] | TGI d14 (%) (tumor growth inhibition rate) [3, 8] | Tumor Weight [3, 8] | Tumor Weight Inhibition Rate (%) [3, 8] | Change Rate in Weight (%) [4] | Number of Animals (Survived/Total) [4] | growth of xenograft tumor (tumor volume) versus vehicle, in words [4] | tumor growth (tumor weight) versus vehicle, in words [4] | TV(mm3) d16 [4] | T/C d16 (%) (relative tumor volume proliferation rate) [4] | TGI d16 (%) (tumor growth inhibition rate) [4] | Tumor Weight [4] | Tumor Weight Inhibition Rate (%) [4] | also measured |
| --- | --- | --- | --- | --- | --- | --- | --- | --- | --- | --- | --- | --- | --- | --- | --- | --- | --- | --- |
| N#Cc1cnc(NC(=O)N2CCCc3cc(CN4CCN5CCC[C@H]5C4=O)c(C=O)nc32)cc1NC1CC1 [Compound of formula (B)] | 7/7 | significantly inhibited the growth of the xenograft tumor | significantly inhibited the growth of the xenograft tumor | 607.8 ± 277.1** mm^3 | 55.8% | 49.1% | 0.7481 ± 0.3692 g | 43.8% | −12.0% | 6/6 | can significantly inhibit the growth of the xenograft tumor | can significantly inhibit tumor growth | 608.1 ± 293.4 mm3 | 75.1% | 44.5% | 0.59 ± 0.34 g | 46.4% | IC50 [1]: < 5 nM; IC50 [2]: < 10 nM; Change Rate in Weight (%) [3, 7]: −4.5%; T/C d16 (%) (relative tumor volume proliferation rate) [4, 9]: 84.5%; TGI d16 (%) (tumor growth inhibition rate) [4, 9]: 30.9%; tumor volume growth compared to model (vehicle) group at corresponding time points, in words ([4]; days as stated (d13-d16 alone; d3-d6, d10-d16 with sorafenib tosylate; d6-d16 with palbociclib)): can significantly inhibit tumor volume growth; Tumor Weight Inhibition Rate (%) [4, 9]: 27.8% |
| CC(=O)c1c(C)c2cnc(Nc3ccc(N4CCNCC4)cn3)nc2n(C2CCCC2)c1=O [Palbociclib, 6-acetyl-8-cyclopentyl-5-methyl-2-{[5-(piperazin-1-yl)pyridin-2-yl]amino}pyrido[2,3-d]pyrimidin-7 (8H)-one] | 7/7 | did not inhibit the growth of tumor | failed to inhibit the growth of xenograft tumor | 948.8 ± 361.2 mm^3 | 95.8% | 11.0% | 1.3047 ± 0.4823 g | 2.1% | −24.7% | 6/6 | failed to inhibit the growth of xenograft tumor | failed to inhibit tumor growth | 711.6 ± 313.8 mm3 | 91.3% | 31.4% | 0.89 ± 0.30 g | 19.1% | T/C d16 (%) (relative tumor volume proliferation rate) ([4]; listed as palbociclib): 75.1%; TGI d16 (%) (tumor growth inhibition rate) ([4]; listed as palbociclib): 44.5%; Tumor Weight Inhibition Rate (%) ([4]; listed as palbociclib): 46.4% |
| CNC(=O)c1cc(Oc2ccc(NC(=O)Nc3ccc(Cl)c(C(F)(F)F)c3)cc2)ccn1 [sorafenib] | – | – | – | – | – | – | – | – | – | – | – | – | – | – | – | – | – | incidence of CTC (version V2.0) Grade 3 drug-related adverse events [5]: 37%; incidence of CTC (version V2.0) Grade 4 drug-related adverse events [5]: 3%; diarrhea [5, 10]: 37%; hand and foot skin reactions [5, 10]: 35%; malaise [5, 10]: 33%; rash [5, 10]: 38%; incidence of congestive heart failure [6]: 1.9% |
| COc1cc2nccc(Oc3ccc(NC(=O)NC4CC4)c(Cl)c3)c2cc1C(N)=O [Lenvatinib Mesylate, 4-[3-chloro-4-(N′-cyclopropylureido)phenoxy]-7-methoxyquinoline-6-carboxamide mesylate] | 7/7 | significantly inhibited the growth of the xenograft tumor | significantly inhibited the growth of the xenograft tumor | 533.1 ± 212.6** mm^3 | – | 57.4% | 0.5600 ± 0.1923 g | 58.0% | – | – | – | – | – | – | – | – | – | – |
| CNC(=O)c1cc(Oc2ccc(NC(=O)Nc3ccc(Cl)c(C(F)(F)F)c3)cc2)ccn1.Cc1ccc(S(=O)(=O)O)cc1 [Sorafenib Tosylate, 4-{4-[3-(4-chloro-3-trifluoromethyl-phenyl)-acylurea]-phenoxy}-pyridine-2-carboxylic acid methylamide-4-toluenesulfonate] | – | – | – | – | – | – | – | – | −17.5% | – | failed to inhibit the growth of xenograft tumor | failed to inhibit tumor growth | 717.2 ± 222.7 mm3 | 84.5% | 30.9% | 0.79 ± 0.23 g | 27.8% | T/C d16 (%) (relative tumor volume proliferation rate) ([4]; listed as sorafenib tosylate): 91.3%; TGI d16 (%) (tumor growth inhibition rate) ([4]; listed as sorafenib tosylate): 31.4%; Tumor Weight Inhibition Rate (%) ([4]; listed as sorafenib tosylate): 19.1% |
